Data as given in patent US20230339886A1 (University of Florida Research Foundation, Incorporated, priority 2020, published 2023).

Biological target: T1, REV-ERBα LBD (human; residues 281-614 Δ324-422) (Homo sapiens, UniProt P20393, DEL324-422)
T1 construct: 6×Histag-REV-ERBα LBD (human; residues 281-614 Δ324-422); made in house; host or cells: Escherichia coli
Assay: TR-FRET corepressor interaction assay (REV-ERBα LBD, FITC-SMRT peptide)
Type: biochemical
Conditions: Table 2, read-out: REVERBα agonism (EC50 class, FRET assay)
Procedure, shortened: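 Compound serial dilutions (in DMSO, triplicate) incubated 2 h at 4 °C; Tb donor excited at 340 nm, emission read at 495 nm and FITC acceptor at 520 nm. TR-FRET ratio (520/495 nm) plotted against ligand concentration and fitted to a sigmoidal dose-response curve.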

T1 sequence (P20393 with tags, fused parts or gaps DEL324-422): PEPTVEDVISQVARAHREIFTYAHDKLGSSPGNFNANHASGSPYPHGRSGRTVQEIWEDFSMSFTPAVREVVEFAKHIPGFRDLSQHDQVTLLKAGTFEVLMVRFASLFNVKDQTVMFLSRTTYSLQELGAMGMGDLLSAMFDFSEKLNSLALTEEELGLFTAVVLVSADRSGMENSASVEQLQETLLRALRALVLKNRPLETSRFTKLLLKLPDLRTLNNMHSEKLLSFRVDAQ
T1 sequence (Q9Y618 2335-2356 partner limits assumed): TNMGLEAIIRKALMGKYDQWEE

Structure (SMILES) | EC50 [nM]
COC(C)(C)Cn1cc([C@H](NS(=O)(=O)C2CCC2)C(F)(F)F)c2cc(F)c(-c3ccccc3C(F)(F)F)cc21 [Example 391, N-[(1S)-2,2,2-trifluoro-1-[5-fluoro-1-(2-methoxy-2-methyl-propyl)-6-[2-(trifluoromethyl)phenyl]indol-3-yl]ethyl]cyclobutanesulfonamide] | < 500
N#CC1(Cn2cc([C@H](NS(=O)(=O)C3CCC3)C(F)(F)F)c3cc(F)c(-c4ccccc4C(F)(F)F)cc32)CC1 [Example 392, [(1S)-1-[1-[(1-cyanocyclopropyl)methyl]-5-fluoro-6-[2-(trifluoromethyl)phenyl]indol-3-yl]-2,2,2-trifluoro-ethyl]cyclobutanesulfonamide] | < 500
CC(C)(C)Cn1cc(CCNS(=O)(=O)C2CC2)c2ccc(-c3cccc(F)c3C(F)(F)F)cc21 [Example 393, N-(2-(6-(3-fluoro-2-(trifluoromethyl)phenyl)-1-neopentyl-1H-indol-3-yl)ethyl)cyclopropanesulfonamide] | 500 to 3000
CC(C)(C)Cn1cc(CCNS(=O)(=O)C2CC2)c2ccc(-c3ccc(Cl)cc3C(F)(F)F)cc21 [Example 394, N-(2-(6-(4-chloro-2-(trifluoromethyl)phenyl)-1-neopentyl-1H-indol-3-yl)ethyl)cyclopropanesulfonamide] | < 500
CC(C)(C)Cn1cc(CCNS(=O)(=O)C2CC2)c2ccc(-c3ccc(F)cc3C(F)(F)F)cc21 [Example 395, N-(2-(6-(4-fluoro-2-(trifluoromethyl)phenyl)-1-neopentyl-1H-indol-3-yl)ethyl)cyclopropanesulfonamide] | < 500
CC(C)(C)Cn1cc(CCNS(=O)(=O)C2CC2)c2ccc(-c3ccc(C(F)(F)F)cc3Cl)cc21 [Example 396, N-(2-(6-(2-chloro-4-(trifluoromethyl)phenyl)-1-neopentyl-1H-indol-3-yl)ethyl)cyclopropanesulfonamide] | < 500
CC(C)(C)Cn1cc(CCNS(=O)(=O)C2CC2)c2ccc(-c3ccc(Cl)cc3Cl)cc21 [Example 397, N-(2-(6-(2,4-dichlorophenyl)-1-neopentyl-1H-indol-3-yl)ethyl)cyclopropanesulfonamide] | < 500
Cc1ccc(-c2ccc3c(CCNS(=O)(=O)C4CC4)cn(CC(C)(C)C)c3c2)c(C(F)(F)F)c1 [Example 398, N-(2-(6-(4-methyl-2-(trifluoromethyl)phenyl)-1-neopentyl-1H-indol-3-yl)ethyl)cyclopropanesulfonamide] | < 500
CC(C)(C)Cn1cc(CCNS(=O)(=O)C2CC2)c2ccc(-c3cccc(C(F)(F)F)c3C#N)cc21 [Example 399, N-(2-(6-(2-cyano-3-(trifluoromethyl)phenyl)-1-neopentyl-1H-indol-3-yl)ethyl)cyclopropanesulfonamide] | > 3000
CC(C)(C)Cn1cc(CCNS(=O)(=O)C2CC2)c2ccc(-c3ccc(C(F)(F)F)cc3C#N)cc21 [Example 400, N-(2-(6-(2-cyano-4-(trifluoromethyl)phenyl)-1-neopentyl-1H-indol-3-yl)ethyl)cyclopropanesulfonamide] | < 500
CC(C)(C)Cc1cn(CCNS(=O)(=O)C2CC2)c2ccc(-c3ccc(Cl)cc3C#N)cc12 [Example 401, N-(2-(5-(4-chloro-2-cyanophenyl)-3-neopentyl-1H-indol-1-yl)ethyl)cyclopropanesulfonamide] | < 500
Cc1ccc(-c2ccc3c(c2)c(CC(C)(C)C)cn3CCNS(=O)(=O)C2CC2)c(C(F)(F)F)c1 [Example 402, N-(2-(5-(4-methyl-2-(trifluoromethyl)phenyl)-3-neopentyl-1H-indol-1-yl)ethyl)cyclopropanesulfonamide] | < 500
CC(CO)(CCl)Cn1cc([C@H](NS(=O)(=O)C2CC2)C(F)(F)F)c2cc(F)c(-c3ccccc3C(F)(F)F)cc21 (stereo partly drawn) [Example 404, N-[(1S)-1-[1-[2-(chloromethyl)-3-hydroxy-2-methyl-propyl]-5-fluoro-6-[2-(trifluoromethyl)phenyl]indol-3-yl]-2,2,2-trifluoro-ethyl]cyclopropanesulfonamide] | 500 to 3000
